Patent US10653688B2, “6-(6-membered heteroaryl and aryl)isoquinolin-3-yl carboxamides and preparation and use thereof” (Samumed, LLC, priority 2017, dated 2020)
pEC50: −log10 of the molar value. Read-outs that look alike come from different tables or passages of the source.

Columns and labels:
recombinant GSK3β kinase = recombinant GSK3β kinase (Homo sapiens (Human), UniProt P49841); experiment: GSK3β kinase assay (Ser/Thr 09 peptide Z-lyte, FRET); type: biochemical;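 further: FRET read-out as coumarin over fluorescein emission ratio, compounds incubated one hour at room temperature, IC50 from dose-response curve fit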
recombinant GSK3β kinase, sequence (P49841 whole entry): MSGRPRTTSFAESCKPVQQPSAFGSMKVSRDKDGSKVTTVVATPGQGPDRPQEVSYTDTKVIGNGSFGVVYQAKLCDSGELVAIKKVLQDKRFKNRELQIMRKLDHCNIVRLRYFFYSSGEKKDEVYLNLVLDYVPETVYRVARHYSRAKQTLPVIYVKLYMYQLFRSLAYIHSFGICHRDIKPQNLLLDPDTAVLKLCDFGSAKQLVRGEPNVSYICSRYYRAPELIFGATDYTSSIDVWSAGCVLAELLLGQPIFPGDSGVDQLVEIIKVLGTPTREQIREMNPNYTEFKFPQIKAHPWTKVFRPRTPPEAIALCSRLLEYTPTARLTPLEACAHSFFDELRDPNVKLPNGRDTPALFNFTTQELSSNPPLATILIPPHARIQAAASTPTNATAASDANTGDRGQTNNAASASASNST
Experimental: Each compound is dissolved in DMSO as a 10 mM stock and used to prepare compound source plates. Serial dilution (1:3, 11-point dose-response curves from 10 M to 0.0003 M) and compound transfer was performed using the ECHO 550 (Labcyte, Sunnyvale, Calif.) into 1536-well black-walled round bottom plates (Corning).
This is a non-radioactive assay using fluorescence resonance energy transfer (FRET) between coumarin and fluorescein to detect kinase activity which is represented as ratio of coumarin emission/fluorescein emission.
The mixture is allowed to incubate with the representative compounds for one hour at room temperature. All reactions were performed in duplicate. Unphosphorylated (“0% Control”) and phosphorylated (“100% control”) forms of Ser/Thr 18 serve as control reactions.
After incubation, diluted Development Buffer is added to the reaction and allowed to further incubate for one hour at room temperature.
Dose-response curves are generated and inhibitory concentration (IC50) values are calculated using non-linear regression curve fit in the Dotmatics' Studies Software (Bishops Stortford, UK).

[1] = tested on: Wnt activity (SW480 colon carcinoma cells stably expressing the Sp5-Luc reporter gene); experiment: Wnt activity screening assay (Sp5-Luc reporter gene assay); type: cell-based, human; settings: Homo sapiens, 36 to 48 hours
Source text: The screening assay for Wnt activity is described as follows. Reporter cell lines can be generated by stably transducing cancer cell lines (e.g., colon cancer) or primary cells (e.g., IEC-6 intestinal cells) with a lentiviral construct that includes a Wnt-responsive promoter driving expression of the firefly luciferase gene.
SW480 colon carcinoma cells were transduced with a lentiviral vector expressing luciferase with a human Sp5 promoter consisting of a sequence of eight TCF/LEF binding sites. SW480 cells stably expressing the Sp5-Luc reporter gene and a hygromycin resistance gene were selected by treatment with 150 μg/mL of hygromycin for 7 days. These stably transduced SW480 cells were expanded in cell culture and used for all further screening activities. […] For Sp5-Luc reporter gene assays, the cells were plated at 4,000 cells/well in 384-well plates with a DMEM medium containing 1% fetal bovine serum, and 1% Penicillin-Streptomycin and incubated for 36 to 48 hours at 37° C. and 5% CO2. Following incubation, 15 μl of BriteLite Plus luminescence reagent (Perkin Elmer) was added to each well of the 384-well assay plates. The plates were placed on an orbital shaker for 2 min and then luminescence was quantified using the Envision (Perkin Elmer) plate reader. Readings were normalized to DMSO only treated cells, and normalized activities were utilized for EC50 calculations using the dose-response log (inhibitor) vs. response-variable slope (four parameters) nonlinear regression feature available in GraphPad Prism 5.0 (or Dotmatics).

[2] = target: recombinant DYRK1A kinase (Homo sapiens (Human), UniProt Q13627); experiment: DYRK1A kinase assay (Ser/Thr 18 peptide Z-lyte, FRET)
Experimental: Each compound was dissolved in DMSO as a 10 mM stock and used to prepare compound source plates.
This is a non-radioactive assay using fluorescence resonance energy transfer (FRET) between coumarin and fluorescein to detect kinase activity which is represented as a ratio of coumarin emission/fluorescein emission.
The mixture was allowed to incubate with the representative compounds for one hour at room temperature. All reactions were performed in duplicate. Unphosphorylated (“0% Control”) and phosphorylated (“100% control”) forms of Ser/Thr 18 served as control reactions. Additionally, an 11-point dose-response curve of Staurosporine (luM top) was run to serve as a positive compound control.
After incubation, Development Reagent A was diluted in Development Buffer then added to the reaction and allowed to further incubate for one hour at room temperature.
Dose-response curves were generated and inhibitory concentration (IC50) values were calculated using non-linear regression curve fit in the Dotmatics' Studies Software (Bishops Stortford, UK).

[3] = tested on: SW480 colon carcinoma cells; experiment: Cell viability assay (CellTiter-Glo); type: cell-based, human; settings: Homo sapiens, 96 h, four days, CellTiter-Glo
Experimental: SW480 colon carcinoma cells were transduced with a lentiviral vector expressing luciferase with a human Sp5 promoter consisting of a sequence of eight TCF/LEF binding sites. SW480 cells stably expressing the Sp5-Luc reporter gene and a hygromycin resistance gene were selected by treatment with 150 μg/mL of hygromycin for 7 days. These stably transduced SW480 cells were expanded in cell culture and used for all further screening activities.
For the Cell Viability Assays, the cells were plated at 2,000 cells/well in 384-well plates with a DMEM medium containing 1% fetal bovine serum, and 1% Penicillin-Streptomycin and incubated for […] at 37° C. and 5% CO2. Eight replicates of DMSO-treated cells served as controls and cells treated with compound were performed in duplicate.
After incubation, 10 μL of CellTiter-Glo (Promega) was added to each well allowed to incubate for approximately 12 minutes. This reagent “results in cell lysis and generation of a luminescent signal proportional to the amount of ATP present. The amount of ATP is directly proportional to the number of cells present in culture, in agreement with previous reports. The CellTiter-Glo Assay generates a “glow-type” luminescent signal, produced by the luciferase reaction (Promega.com)”.

[4] = tested on: LL29 cells (primary human fibroblasts derived from IPF patients), α-smooth muscle actin; experiment: Inhibition of fibrotic process: TGF-β1-treated primary human fibroblasts, αSMA staining; type: cell-based; settings: Homo sapiens, Fibroblast; for pEC50: 96 h, TGF-β1 20 ng/mL, 4 days, % cells positive for αSMA;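 on all read-outs here: controls were TGF-β1-stimulated wells with DMSO vehicle as the positive reference and cells given DMSO alone as the negative reference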
[5] = tested on: IL-6 in human peripheral blood mononuclear cells (huPBMCs); experiment: IL-6 inhibition in LPS-stimulated human peripheral blood mononuclear cells (HTRF); type: cell-based; settings: Homo sapiens, PBMC; for pEC50: LPS 50 ng/mL, 22 hours, IL-6 HTRF
Experimental: Human Peripheral Blood Mononuclear Cells:
Fresh Normal PB MNC (Catalog # PB001, AllCells, Alameda, Calif.) were shipped overnight at 4° C. and resuspended in Roswell Park Memorial Institute (RPMI) 1640 Medium, with GlutaMAX Supplement (Catalog #61870127, ThermoFisher Scientific, Waltham, Mass.) supplemented with 1% Penicillin-Streptomycin (Catalog #15140163, ThermoFisher Scientific, Waltham, Mass.) and 1% fetal bovine serum (FBS) (Catalog #16140089, ThermoFisher Scientific, Waltham, Mass.) assay media.
Fresh normal human peripheral blood mononuclear cells (huPBMCs) were resuspended in 1% FBS-RPMI assay media with 1% Penicillin-Streptomycin 1% to a cell concentration of 1×10e6 cells/mL. […] 50 ng/mL of Lipopolysaccharides from Escherichia coli 0111:B4 (Catalog # L5293-2ML, Sigma-Aldrich, St. Louis, Mo.) was added after 2 hours and cells were incubated for another 22 hours at 37° C.-5% CO2. After 22 hour incubation, a mixture of anti-IL6 XL665 and anti-IL-6 Cryptate diluted in reconstitution buffer (Catalog #62IL6PEC, Cisbio Inc., Bedford, Mass.) was added to each well. Following incubation for 3 hours at room temperature, Homogeneous Time-Resolved Fluorescence (HTRF) was measured using the Envision (Perkin Elmer, Shelton, Conn.) at 665 nm and […]. The ratio of fluorescence at 665 nm to 620 nm was used as a readout for IL-6 quantification. All samples were processed in duplicate. Readings were normalized to DMSO treated cells and normalized activities were utilized for EC50 calculations. EC50 was determined using software generated by Dotmatics Limited (Windhill Bishops Stortford Herts, UK) using the Levenberg-Marquardt 4 parameter fitting procedure with finite different gradients.

[6] = GSK3β kinase, head says EC50, method says IC50, ATP 46 μM
[7] = DYRK1A kinase, head says EC50, method says IC50, ATP 30 μM

| Structure (SMILES) | pEC50 (recombinant GSK3β kinase; [6]) | pEC50 [1] | pEC50 [2, 7] | pEC50 [3] | pEC50 [5] | pEC50 (recombinant GSK3β kinase) | pEC50 [2] | pEC50 [4] | inhibition at 10 µM ([4]; read-out: percent inhibition at 10 μM (given for EC50 >10 μM), TGF-β1, αSMA, 10 μM) [%] | inhibition at 10 µM ([5]; read-out: percent inhibition at 10 μM (given for EC50 >10 μM), LPS, IL-6, 10 μM) [%] |
| --- | --- | --- | --- | --- | --- | --- | --- | --- | --- | --- |
| CC(C)Nc1cncc(-c2ccc3cnc(NC(=O)C4CCNCC4)cc3c2)n1 [Compound 87, N-(6-(6-(Isopropylamino)pyrazin-2-yl)isoquinolin-3-yl)piperidine-4-carboxamide] | 7.42 | 6.70 | 9.00 | 6.12 | 6.42 | – | – | 5.72 | – | – |
| CC(C)Nc1cncc(-c2ccc3cnc(NC(=O)c4cccc(C5CCNCC5)c4)cc3c2)n1 [Compound 92, N-(6-(6-(Isopropylamino)pyrazin-2-yl)isoquinolin-3-yl)-3-(piperidin-4-yl) benzamide] | 5.47 | 6.85 | 8.05 | 6.63 | 6.43 | – | – | 5.49 | – | – |
| CC(C)Nc1cncc(-c2ccc3cnc(NC(=O)c4cccc(C5CCN(C)CC5)c4)cc3c2)n1 [Compound 93, N-(6-(6-(Isopropylamino)pyrazin-2-yl)isoquinolin-3-yl)-3-(1-methylpiperidin-4-yl)benzamide] | 5.18 | 6.88 | 9.00 | 6.77 | 6.09 | – | – | 5.65 | – | – |
| CC(C)Nc1cncc(-c2ccc3cnc(NC(=O)c4cn(C5CCNCC5)nn4)cc3c2)n1 [Compound 94, N-(6-(6-(isopropylamino)pyrazin-2-yl)isoquinolin-3-yl)-1-(piperidin-4-yl)-1H-1,2,3-triazole-4-carboxamide] | 5.57 | 7.62 | 8.70 | 7.34 | 6.86 | – | – | 6.99 | – | – |
| CC(C)Nc1cncc(-c2ccc3cnc(NC(=O)c4cn(C5CCN(CCF)CC5)nn4)cc3c2)n1 [Compound 95, 1-(1-(2-fluoroethyl)piperidin-4-yl)-N-(6-(6-(isopropylamino)pyrazin-2-yl)isoquinolin-3-yl)-1H-1,2,3-triazole-4-carboxamide] | 5.16 | 7.47 | 8.70 | 5.98 | 6.68 | – | – | 7.04 | – | – |
| CC(C)Nc1cncc(-c2ccc3cnc(NC(=O)c4cn(C5CCN(C(C)C)CC5)nn4)cc3c2)n1 [Compound 96, N-(6-(6-(Isopropylamino)pyrazin-2-yl)isoquinolin-3-yl)-1-(1-isopropylpiperidin-4-yl)-1H-1,2,3-triazole-4-carboxamide] | 5.52 | 7.55 | 9.00 | 7.04 | 6.51 | – | – | 6.82 | – | – |

The next lines start with results.

| pEC50 (recombinant GSK3β kinase; [6]) | pEC50 [1] | pEC50 [2, 7] | pEC50 [3] | pEC50 [5] | pEC50 (recombinant GSK3β kinase) | pEC50 [2] | Structure (SMILES) | pEC50 [4] | inhibition at 10 µM ([4]; read-out: percent inhibition at 10 μM (given for EC50 >10 μM), TGF-β1, αSMA, 10 μM) [%] | inhibition at 10 µM ([5]; read-out: percent inhibition at 10 μM (given for EC50 >10 μM), LPS, IL-6, 10 μM) [%] |
| --- | --- | --- | --- | --- | --- | --- | --- | --- | --- | --- |
| < 5.00 | 5.23 | 7.02 | 5.08 | < 5.00 | – | – | CN1CCN(c2cc(C(=O)Nc3cc4cc(-c5cnccn5)ccc4cn3)ccn2)CC1 [Compound 84, 2-(4-Methylpiperazin-1-yl)-N-(6-(pyrazin-2-yl)isoquinolin-3-yl)isonicotinamide] | < 5.00 | 35.4 | 5.7 |
| < 5.00 | 6.12 | 8.70 | 5.61 | 5.17 | – | – | CNc1cncc(-c2ccc3cnc(NC(=O)c4ccnc(N5CCN(C)CC5)c4)cc3c2)n1 [Compound 85, N-(6-(6-(Methylamino)pyrazin-2-yl)isoquinolin-3-yl)-2-(4-methylpiperazin-1-yl)isonicotinamide] | 5.73 | – | – |
| – | 5.79 | – | 5.47 | 5.95 | 7.77 | 9.00 | CC(C)Nc1cncc(-c2ccc3cnc(NC(=O)C4CNC4)cc3c2)n1 [Compound 86, N-(6-(6-(Isopropylamino)pyrazin-2-yl)isoquinolin-3-yl)azetidine-3-carboxamide] | 6.69 | – | – |
| 8.00 | 6.86 | 9.00 | 6.33 | 6.33 | – | – | CC(C)Nc1cncc(-c2ccc3cnc(NC(=O)C4CCN(C(C)C)CC4)cc3c2)n1 [Compound 90, 1-isopropyl-N-(6-(6-(isopropylamino)pyrazin-2-yl)isoquinolin-3-yl)piperidine-4-carboxamide] | 7.43 | – | – |
